The target in one assay is T1, HDAC1 enzyme (GST-HDAC1) (Homo sapiens, UniProt Q13547).
T1 construct: Amplification of human HDAC1 and HDAC8 coding region from this cDNA library; made in house; host or cells: SF9 insect cells (baculovirus, pDEST20 vector)
Description: In vitro HDAC assay for determination of IC50 values (BIOMOL fluorescent-based HDAC activity assay), HDAC1. In kind it is biochemical. The conditions noted are these: 600 nM HDAC1 enzyme, 500 μM Flur de lys generic substrate, room temperature 2 h. As to the method: Recombinant GST-HDAC1 and GST-HDAC-8 Protein expression and purification
Human cDNA library was prepared using cultured SW620 cells. Amplification of human HDAC1 and HDAC8 coding region from this cDNA library was cloned separately into the baculovirus expression pDEST20 vector and pFASTBAC vector respectively (GATEWAY Cloning Technology, Invitrogen Pte Ltd). The pDEST20-HDAC1 and pFASTBAC-HTGST-HDAC8 constructs were confirmed by DNA sequencing. Recombinant baculovirus was prepared using the Bac-To-Bac method following the manufacturer's instruction (Invitrogen Pte Ltd). Baculovirus titer was determined by plaque assay to be about 10^8 PFU/ml.
Expression of GST-HDAC1 or HTGST-HDAC8 was done by infecting SF9 cells (Invitrogen Pte Ltd) with pDEST20-HDAC1 or pFASTBAC-GST-HDAC8 baculovirus at MOI=1 for 48 h. Soluble cell lysate was incubated with pre-equilibrated Glutathione Sepharose 4B beads (Amersham) at 4° C. for 2 h. The beads were washed with PBS buffer for 3 times. The GST-HDAC1 protein or GST-HDAC8 protein was eluted by elution buffer containing 50 mM Tris, pH8.0, 150 mM NaCl, 1% Triton X-100 and 10 mM or 20 mM reduced Glutathione. The purified GST-HDAC1 protein or purified GST-HDAC8 protein was dialyzed with HDAC storage buffer containing 10 mM Tris, pH7.5, 100 mM NaCl and 3 mM MgCl2. 20% Glycerol was added to purified GST-HDAC1 protein or purified GST-HDAC8 before storage at −80° C.
In vitro HDAC assay for determination of IC50 values
The assay has been carried out in 96 well format and the BIOMOL fluorescent-based HDAC activity assay has been applied. The reaction composed of assay buffer, containing 25 mM Tris pH 7.5, 137 mM NaCl, 2.7 mM KCl, 1 mM MgCl2, 1 mg/ml BSA, tested compounds, 500 nM HDAC8 enzyme or 600 nM HDAC1 enzyme, 200 μM Flur de lys p53 peptide substrate for HDAC8 enzyme or 500 μM Flur de lys generic substrate for HDAC1 enzyme and subsequently was incubated at room temperature for 2 h. Flur de lys Developer was added and the reaction was incubated for 10 min. Briefly, deacetylation of the substrate sensitizes it to the developer, which then generates a fluorophore The fluorophore is excited with 360 nm light and the emitted light (460 nm) is detected on a fluorometric plate reader (Tecan Ultra Microplate detection system, Tecan Group Ltd.).
The analytical software, Prism 3.0® (GraphPad Software Inc) has been used to generate IC50 from a series of data.

For assay [1], the system named is acetylated H3 in Colo205 cells. The assay is described as follows: Histone H3 acetylation assay (western-blot). It is filed as cell-based, human. Also noted: key: “Active” means accumulation of acetylated histone was observed when compared with control (without compound). Conditions: for Histone 3 acetylation: Colo205 cells, 0.1, 1, 5 and 10 μM, after 24 h. As to the method: Histone H3, H4 and H2A acetylation assay
A hallmark of histone deacetylase (HDAC) inhibition is the increase in the acetylation level of histones. Histone acetylation, including H3, H4 and H2A can be detected by immuno-blotting (western-blot). Colo205 cells, approximately 1.5×10^6 cells/10 cm dish, were seeded in the previously described medium, cultivated for 24 h and subsequently treated with HDAC inhibitory agents at 0.1, 1, 5 and 10 μM final concentration. […] The protein concentration was quantified using BCA method (Sigma Pte Ltd). The protein lysate was separated using 4-12% bis-tris SDS-PAGE gel (Invitrogen Pte Ltd) and was transferred onto PVDF membrane (BioRad Pte Ltd). The membrane was probed separately using primary antibody specific for acetylated H3, acetylated H4 or acetylated H2A (Upstate Pte Ltd). The detection antibody, goat anti rabbit antibody conjugated with horse radish peroxidase (HRP) was used according to the manufacturing instruction (Pierce Pte Ltd). After removing the detection antibody from the membrane, an enhanced chemiluminescent substrate for detection of HRP (Pierce Pte Ltd) was added onto the membrane. After removing the substrate, the membrane was exposed to an X-ray film (Kodak) for 1 sec-20 mins. The X-ray film was developed using the X-ray film processor. The density of each band observed on the developed film could be analysed using UVP Bioimaging software (UVP, Inc, Upland, Calif.). The values were then normalized against the density of actin in the corresponding samples to obtain the expression of the protein.

A further assay has as its system NCI H552. Description: Cell-based proliferation assay for determination of GI50 values, lung cancer cell line. Conditions: Homo sapiens; 96 h treatment, cyquant cell proliferation assay; read-out: Cellular activities GI50, NCI H552. As to the method:
Cell-based Proliferation assay for determination of GI50 values
Three different cancer cell lines were obtained from ATCC: Human colon cancer cell line (Colo205), human breast cancer cell lines (MDA-MB435), and human lung cancer cell line (NCl-H522). Colo205 cells and NCl-H522 were cultivated in RPMI 1640 containing 2 mM
L-Glutamine, 5% FBS, 1.0 mM Na Pyruvate. MDA-MB435 cells were cultivated in DMEM containing 2 mM L-Glutamine, 5% FBS. Colo205 cells were seeded in 96-wells plate at 2000 and 5000 cells per well respectively. MDA-MB435 and NCl-H522 cells were seeded in 96-wells plate at 6000 cells per well. The plates were incubated at 37° C., 5% CO2, for 24 h. Cells were treated with compounds at various concentrations for 96 h. Cell growth was then monitored using cyquant cell proliferation assay (Invitrogen Pte Ltd). Dose response curves were plotted to determine GI50 values for the compounds using XL-fit (ID Business Solution, Emeryville, Calif.).

The structures appear in SMILES notation. Where only a bound is given, the exact number is not on record here.

T1 sequence (Q13547 whole entry): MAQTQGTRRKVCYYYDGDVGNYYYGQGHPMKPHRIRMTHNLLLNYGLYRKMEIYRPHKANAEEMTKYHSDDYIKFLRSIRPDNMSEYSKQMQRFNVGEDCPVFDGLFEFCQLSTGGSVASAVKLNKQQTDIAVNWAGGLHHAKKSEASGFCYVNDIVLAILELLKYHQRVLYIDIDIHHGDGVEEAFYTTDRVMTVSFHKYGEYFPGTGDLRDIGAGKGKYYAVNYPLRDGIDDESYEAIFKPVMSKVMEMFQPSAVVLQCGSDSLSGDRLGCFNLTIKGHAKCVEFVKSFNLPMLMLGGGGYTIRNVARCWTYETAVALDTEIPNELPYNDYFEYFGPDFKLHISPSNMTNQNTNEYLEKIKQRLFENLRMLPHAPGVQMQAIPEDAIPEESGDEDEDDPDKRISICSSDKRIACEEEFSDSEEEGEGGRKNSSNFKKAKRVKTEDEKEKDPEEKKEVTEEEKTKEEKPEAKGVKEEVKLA

In general, IC50 refers to the concentration needed to halve the response being measured. One may read the GI50 as the concentration at which growth is held to half of that of the control. Take `O=C(Cc1ccc(-c2csc(NC(=O)Cc3ccccc3)n2)s1)NO` [Example 1, N-Hydroxy-2-[5-(2-phenylacetylamino-thiazol-4-yl)-thiophen-2-yl]-acetamide]: the IC50 against HDAC1 enzyme (GST-HDAC1) is over 100000 nM. Also, the “Histone 3 acetylation (after 48 hrs)” value in assay [1] (Colo205 cells, after 48 hrs) is reported as “Active (after 48 hrs)”. The GI50 with NCI H552 turned out to be 2.36 µM.
As for `Nc1nc(-c2ccc(/C=C/C(=O)NO)cc2)cs1` [Example 23, 3-[4-(2-Amino-thiazol-4-yl)-phenyl]-N-hydroxy-acrylamide], the IC50 against HDAC1 enzyme (GST-HDAC1) was determined as 510 nM. For the same compound, the “Histone 3 acetylation” value in assay [1] is listed as “Active”. In addition, the GI50 with NCI H552 worked out at 13.3 µM.
In the case of `O=C(NO)c1ccc(-c2ccc(CNCCc3ccccc3)cc2)s1` [Example 26, 5-[4-(Phenethylamino-methyl)-phenyl]-thiophene-2-carboxylic acid hydroxyamide], the IC50 against HDAC1 enzyme (GST-HDAC1) worked out at 66 nM. Also, the “Histone 3 acetylation” value in assay [1] is on record as “Active”.
For `O=C(NO)c1ccc(-c2ccc(CNCCc3ccccn3)cc2)s1` [Example 27], in that order: 200 nM and “Active”.

The values are drawn from US20070167499A1, “Biaryl linked hydroxamates: preparation and pharmaceutical applications” (A*BIO Pte Ltd., priority 2003, published 2007).
